This note sets out measurements from patent US9926294B2, “Pesticidally active heterocyclic derivatives with sulphur containing substituents” (Syngenta Participations AG, priority 2014, dated 2018).

Holding throughout (format): in vivo
For test [1], the system named is Myzus persicae (green peach aphid). In words: Example B7: Myzus persicae systemic/feeding activity, curative, mixed population (pea seedlings). The following applies: 144 h, roots of infested pea seedlings in test solution, 6 days after introduction, read-out: activity (mortality, special effects on the plant). An excerpt:
Example B7: Activity Against Myzus persicae (Green Peach Aphid)
(Systemic/Feeding Activity, Curative), Mixed Population
Roots of pea seedlings, infested with an aphid population of mixed ages, were placed directly in the test solutions. 6 days after introduction, samples were checked for mortality and special effects on the plant.

Test [2] has as its system Tetranychus urticae (two-spotted spider mite). The test is described as follows: Example B12: Tetranychus urticae mixed population on bean leaf discs. To be noted: foliar, 192 h, mixed population (mobile stages) on sprayed bean leaf discs, 8 days after infestation. The protocol:
Example B12: Activity Against Tetranychus urticae (Two-Spotted Spider Mite)
Bean leaf discs on agar in 24-well microtiter plates were sprayed with aqueous test solutions prepared from 10′000 ppm DMSO stock solutions. After drying the leaf discs were infested with a mite population of mixed ages. The samples were assessed for mortality on mixed population (mobile stages) 8 days after infestation.

For test [3], the system named is Plutella xylostella (diamond back moth). In words: Example B3: Plutella xylostella larvicide, feeding/residual contact, preventive (artificial diet). To be noted: 120 h, L2 larvae on artificial diet, 5 days incubation, read-out: activity (larval mortality, antifeedant, growth regulation). The protocol: Example B3: Activity Against Plutella xylostella (Diamond Back Moth)
(Larvicide, Feeding/Residual Contact Activity, Preventive)
24-well microtiter plate (MTP) with artificial diet was treated with test solutions by pipetting. After drying, the MTPs were infested with L2 larvae (10-15 per well). After an incubation period of 5 days, samples were checked for larval mortality, antifeedant and growth regulation.

Test [4] deals with Frankliniella occidentalis (western flower thrips). The test is described as follows: Example B11: Frankliniella occidentalis mixed population, feeding/contact, preventative. To be noted: foliar, 168 h, mixed population on sprayed sunflower leaf discs, 7 DAT, read-out: activity (mortality, special effects). The procedure:
Example B11: Activity Against Frankliniella occidentalis (Western Flower Thrips)
(Mixed Population, Feeding/Contact, Preventative)
Sunflower leaf discs are placed on agar in a 24-well microtiter plate and sprayed with test solutions. After drying, the leaf discs are infested with a Frankliniella population of mixed ages. After an incubation period of 7 DAT, samples are checked for mortality and special effects (e.g. phytotoxicity).

Test [5] has as its system Myzus persicae (green peach aphid). In words: Example B5: Myzus persicae feeding/residual contact, preventive, mixed population (sunflower leaf discs). The following applies: foliar, 144 h, mixed population on sprayed sunflower leaf discs, 6 DAT, read-out: activity (mortality, special effects). The protocol:
Example B5: Activity Against Myzus persicae (Green Peach Aphid)
(Feeding/Residual Contact Activity, Preventive), Mixed Population
Sunflower leaf discs were placed on agar in a 24-well microtiter plate and sprayed with test solutions. After drying, the leaf discs were infested with an aphid population of mixed ages. After an incubation period of 6 DAT, samples were checked for mortality and special effects (e.g. phytotoxicity).

Test [6] deals with Bemisia tabaci (cotton white fly). In words: Example B9: Bemisia tabaci adulticide contact activity, preventative. The following applies: foliar, 168 h, adult white flies on sprayed cotton leaf discs, 7 DAT, read-out: activity (mortality, special effects). The procedure:
Example B9: Activity Against Bemisia tabaci (Cotton White Fly)
(Adulticide Contact Activity, Preventative), Adult
Cotton leaf discs were placed on agar in a 24-well microtiter plate and sprayed with test solutions. After drying, the leaf discs were infested with adult white flies. After an incubation period of 7 DAT, samples were checked for mortality and special effects (e.g. phytotoxicity).

The test system of test [7] is Euschistus heros (neotropical brown stink bug). In words: Example B10: Euschistus heros N-2 nymphs on soybean leaf. To be noted: 120 h, N-2 nymphs on sprayed soybean leaf, 5 days after infestation. The protocol:
Example B10: Activity Against Euschistus heros (Neotropical Brown Stink Bug)
Soybean leaf on agar in 24-well microtiter plates were sprayed with aqueous test solutions prepared from 10′000 ppm DMSO stock solutions. After drying the leaf were infested with N-2 nymphs. The samples were assessed for mortality 5 days after infestation.

The subject of test [8] is Diabrotica balteata (corn root worm). The test is described as follows: Example B4: Diabrotica balteata larvae L2 on maize sprouts, feeding/contact, preventative. The following applies: 120 h, L2 larvae on sprayed maize sprouts, 5 days incubation, read-out: activity (larval mortality, growth regulation). The procedure: Example B4: Activity Against Diabrotica Balteata (Corn Root Worm)
(Larvae L2 on Maize Sprouts, Feeding/Contact, Preventative)
Maize sprouts, placed on an agar layer in 24 well micro titer plates were treated with test solutions by spraying. After drying, the MTPs were infested with L2 larvae (6-10 per well). After an incubation period of 5 days, samples were checked for larval mortality and growth regulation.

Test [9] concerns Spodoptera littoralis (Egyptian cotton leaf worm). In words: Example B1: Spodoptera littoralis larvicide, feeding/residual contact, preventive (cotton leaf discs). To be noted: foliar, 72 h, L1 larvae on sprayed cotton leaf discs, 3 days after treatment, read-out: activity (mortality, repellent effect, feeding behaviour, growth regulation). An excerpt:
Example B1: Activity Against Spodoptera littoralis (Egyptian Cotton Leaf Worm)
Larvicide, Feeding/Residual Contact Activity, Preventive
Cotton leaf discs were placed on agar in a 24-well microtiter plate and sprayed with test solutions.
After drying, the leaf discs were infested with 5 L1 larvae. The samples were checked for mortality, repellent effect, feeding behaviour, and growth regulation 3 days after treatment (DAT).

As to `CCS(=O)(=O)c1cc(C(F)(F)F)cnc1-c1nnc(-c2ccc(C(F)(F)F)nc2)n1C` [Compound P6], the mortality – broadly, the share of the test organisms that died – at 24 ppm in test [1] is ≥ 80%. In addition, in [2], the mortality at 400 ppm was ≥ 80%.

On to `CCS(=O)(=O)c1cc(C(F)(F)F)cnc1-c1nnc(-c2cc(F)cc(F)c2)n1C` [Compound P29], for which the mortality at 400 ppm in [3] is > 80%; in test [2], ≥ 80%.

`CCS(=O)(=O)c1cc(C(F)(F)F)cnc1-c1nnc(-c2cccnc2)n1C` [Compound P42]: the mortality at 400 ppm in [4] is > 80%.

On to `CCS(=O)(=O)c1cc(C(F)(F)F)cnc1-c1nnc(-c2ccc(Cl)c(C(F)(F)F)c2)n1C` [Compound P48], for which the mortality at 400 ppm in test [5], in test [6], in test [7], in test [8] and in [9] was > 80% throughout.

For the molecule `CCS(=O)(=O)c1cc(C(F)(F)F)cnc1-c1nnc(-c2cnc(C(F)(F)F)nc2)n1C` [Compound P62], the mortality at 400 ppm in test [5], in test [3], in test [7], in [8] and in test [9] was > 80% in each case.

Take `CCS(=O)(=O)c1cccnc1-c1nnc(-c2cc(C(F)(F)F)ccn2)n1C` [Compound P69]: the mortality at 400 ppm in test [5], in [6], in test [3], in test [7], in [8] and in test [9] was > 80% in each case. In addition, in test [1], the mortality at 24 ppm was ≥ 80%.
